Tests used:
[1] = PAMPA permeability, heart total lipid extract (HTLE) membrane; conditions: for Mean logPe / Papp at 4 h, 100 μM / Mean Pe: Heart total lipid extract membrane, n=3; for Papp at 4 h, 100 μM: bovine, PAMPA; for PAMPA permeability on HTLE: pH 7.4, 4 h, 37 °C, in words (PCA biplot, Figure 11B)
[2] = PAMPA permeability, brain polar lipid extract (BPLE) membrane; conditions: for Mean logPe / Mean Pe: Brain Polar lipid extract membrane, n=3; for Mean Pe: * = not detected at acceptor side, value calculated from limit of detection; for Papp at 4 h, 100 μM: pig, PAMPA, pH 7.4
[3] = PAMPA permeability, liver total lipid extract (LTLE) membrane; conditions: for Papp at 4 h, 100 μM: bovine, PAMPA, pH 7.4
[4] = PAMPA permeability, liver polar lipid extract (LPLE) membrane; conditions: for Papp at 4 h, 100 μM: bovine, PAMPA
[5] = PAMPA permeability, brain total lipid extract (BTLE) membrane; conditions: for Mean logPe / Mean Pe: Brain total lipid extract membrane, n=3; for Papp at 4 h, 100 μM: pig, PAMPA, pH 7.4; for Mean Pe: * = not detected at acceptor side, value calculated from limit of detection
[6] = PAMPA permeability, heart polar lipid extract (HPLE) membrane; conditions: for Papp at 4 h, 100 μM: bovine, PAMPA, pH 7.4
[7] = PAMPA permeability, comparison across the six natural lipid extract membranes; conditions: for total-polar permeability comparison: heart, liver and brain extracts, Figure 10A–C
[8] = pH 7.4, Mean Pe, * = not detected at acceptor side, value calculated from limit of detection
[9] = Liver total lipid extract membrane, n=3
[10] = pH 7.4, Mean Pe, n=3, * = not detected at acceptor side, value calculated from limit of detection
[11] = Heart Polar lipid extract membrane, n=3
[12] = * = not detected at acceptor side, value calculated from limit of detection

Row | SMILES | Mean logPe [1] | Papp at 4 h, 100 μM [1, 8] [×10⁻⁶ cm/s] | PAMPA permeability on HTLE [1] | Mean logPe [2] | Mean Pe [2] | Mean logPe [3, 9] | Papp at 4 h, 100 μM [3] [×10⁻⁶ cm/s] | Papp at 4 h, 100 μM [4, 10] [×10⁻⁶ cm/s] | Mean logPe ([4]; n=3) | Mean logPe [5] | Papp at 4 h, 100 μM [5] [×10⁻⁶ cm/s] | Mean logPe [6, 11] | Papp at 4 h, 100 μM [6] [×10⁻⁶ cm/s] | Papp at 4 h, 100 μM [2] [×10⁻⁶ cm/s] | Mean Pe [5] | further results
1 | CC1=NNS(=O)(=O)c2c1ccc(Cl)c2Cl [PGY0072] | -5.40 | 4.26 | low | -5.38 | 4.23 10-6 cm/s | -4.66 | 22.2 | 12.2 | -4.91 | -5.50 | 3.23 | -5.35 | 4.67 |  |  | 
2 | CCCCOc1cc(C(=O)NCCN(CC)CC)c2ccccc2n1 [dibucaine] | -4.44 | 37.3 | high permeability | -4.19 |  | -4.56 | 28.6 | 39.9 | -4.40 | -4.40 |  | -4.31 | 48.6 | 65 | 40.24 10-6 cm/s | total-polar permeability comparison [7]: higher permeability in polar lipids
3 | CC1Cc2ccccc2N1NC(=O)c1ccc(Cl)c(S(N)(=O)=O)c1 (centres unmarked) [indapamide] | -5.69 | 2.04 |  | -5.19 |  | -4.61 | 24.5 | 16.9 | -4.77 | -5.29 | 5.22 | -5.28 | 5.37 | 6.6 |  | 
4 | CC(C)C(=O)Nc1ccc([N+](=O)[O-])c(C(F)(F)F)c1 [flutamide] | -4.40 | 41.8 | high permeability | -4.24 |  | -4.32 | 47.9 | 29.4 | -4.54 | -4.45 | 35.5 | -4.30 | 50.3 | 58.1 |  | total-polar permeability comparison, brain extracts ([7]; BTLE vs BPLE): higher in the brain polar extract; total-polar permeability comparison, liver extracts ([7]; LTLE vs LPLE): higher in the liver total extract
5 | Cn1c(=O)c2c(ncn2C)n(C)c1=O [caffeine] | -5.59 | 2.62 | low | -5.53 |  | -4.7 | 20.3 | 11.3 | -4.95 | -5.71 | 1.96 | -5.39 | 4.19 | 2.97 |  | 
6 | CCOC(=O)[C@H](CCc1ccccc1)N[C@@H](C)C(=O)N1[C@H](C(=O)O)C[C@@H]2CCC[C@@H]21 [ramipril] |  |  |  |  | < 0,86* 10-6 cm/s |  |  | 2.23 |  |  |  |  |  |  | < 0,86* 10-6 cm/s | Mean Pe [1, 12]: < 0,87* 10-6 cm/s; Mean Pe ([6]; Heart Polar lipid extract membrane, n=3, * = not detected at acceptor side, value calculated from limit of detection): < 0,98* 10-6 cm/s
7 | NC(=O)Cc1cccc(C(=O)c2ccccc2)c1N [nepafenac] | -4.73 | 18.8 |  | -4.67 |  | -4.14 | 72.9 | 38.6 | -4.44 | -4.61 | 24.4 | -4.59 | 25.9 | 21.3 |  | 
8 | CCn1cc(C(=O)O)c(=O)c2cc(F)c(N3CCNCC3)cc21 [norfloxacin] |  |  |  | < -6.30 | < 0,50* 10-6 cm/s |  | < 0.501 | 7.17 |  |  | < 0.49 | -5.80 | 1.59 |  | < 0,49* 10-6 cm/s | Mean Pe [1, 12]: < 0,54* 10-6 cm/s; Papp at 4 h, 100 μM ([1]; pH 7.4, Mean logPe): < 0.537 ×10⁻⁶ cm/s; Mean Pe ([3]; Liver total lipid extract membrane, n=3, * = not detected at acceptor side, value calculated from limit of detection): < 0,5* 10-6 cm/s; Papp at 4 h, 100 μM ([4]; pH 7.4, Mean logPe, n=3): 5.25 ×10⁻⁶ cm/s
9 | O=C1CC2(CCCC2)CC(=O)N1CCCCN1CCN(c2ncccn2)CC1 [buspirone] |  |  |  |  |  |  |  | 57 |  |  |  |  |  |  |  | total-polar permeability comparison [7]: higher permeability in polar lipids
10 | CCn1cc(C(=O)O)c(=O)c2cc(F)c(N3CCNCC3)nc21 [enoxacin] |  | 0.4 |  | -5.12 |  | -5.37 | 4.25 | 3.49 | -5.46 | -5.36 | 4.48 | -5.44 | 3.7 | 7.58 |  | Papp at 4 h, 100 μM ([1]; pH 7.4, Mean logPe): 0.589 ×10⁻⁶ cm/s

From publication PMC10053807, “Natural Lipid Extracts as an Artificial Membrane for Drug Permeability Assay: In Vitro and In Silico Characterization” (Pharmaceutics, 2023)
